Results taken from PMC6792352, “Limited Chemical Structural Diversity Found to Modulate Thyroid Hormone Receptor in the Tox21 Chemical Library” (Environmental Health Perspectives, 2019).
Where a name gives a salt, the structure may show the parent alone.

Experiment: in vitro
Settings: rat, gh3-tre-luc cells

| SMILES | CC50 at 24 h (AC50 (uM) modified / 1000) [µM] | further results |
| --- | --- | --- |
| COC(C)(C)CCCC(C)C/C=C/C(C)=C/C(=O)OC(C)C (stereo not drawn) [Methoprene] | > 90 |  |
| COc1cc(Cl)ccc1Oc1ccc(Cl)cc1Cl [Methyl triclosan] | 60.4 |  |
| CCCCCCCCCCCCOCCOS(=O)(=O)O [Sodium lauryl polyoxyethylene ether sulfate] | 41 |  |
| NNC(=O)CCCCC(=O)NN [Hexanedihydrazide] | > 90 |  |
| CCCCCCCCCCOC(C)=O [Decyl acetate] | > 90 |  |
| CCOC(=O)C1=C(C)NC(C)=C(C(=O)OC)C1c1cccc(Cl)c1Cl (stereo not drawn) [Felodipine] | 13.5 |  |
| CCCCC#N [Valeronitrile] | > 90 |  |
| C[C@H]1[C@@H](c2ccccc2)NC(=O)N1C [(4R,5S)-(-)-1,5-Dimethyl-4-phenyl-2-imidazolidinone] | > 90 |  |
| COc1ccc(-n2nc(C(F)F)cc2-c2ccc([S+](C)[O-])cc2)cc1 (stereo not drawn) [Difpas-pyrazole] | > 90 |  |
| O=[N+]([O-])c1ccc2ccc3cccc4ccc1c2c34 [1-Nitropyrene] | > 90 |  |
| COc1ccc(NC(=O)CC(C)=O)cc1 [N-(4-Methoxyphenyl)-3-oxobutanamide] | > 90 |  |
| C=CC(=O)OCC(CO)(COCC(COC(=O)C=C)(COC(=O)C=C)COC(=O)C=C)COC(=O)C=C [Dipentaerythritol pentaacrylate] | 1.74 |  |
| CC(=O)N(CC(O)CO)c1c(I)c(C(=O)NCCO)c(I)c(C(=O)NCC(O)CO)c1I (stereo not drawn) [Ioxilan] | > 50 |  |
| CCCOC(C)=O [Propyl acetate] | > 90 |  |
| CCCCCC/C=C/C=O [(E)-2-Nonenal] | > 90 |  |
| COCc1c(C(C)C)nc(C(C)C)c(/C=C/[C@@H](O)C[C@@H](O)CC(=O)O)c1-c1ccc(F)cc1 [Cerivastatin sodium] | > 50 |  |
| CCOC1Oc2ccc(OS(C)(=O)=O)cc2C1(C)C (stereo not drawn) [Ethofumesate] | > 90 |  |
| CC(C)(C)OC(=O)N1C[C@@H](F)C[C@H]1C(=O)O [1,2-Pyrrolidinedicarboxylicacid,4-fluoro-,1-(1,1-dimethylethyl)ester,(2S,4S)-] | > 90 |  |
| CC=C(CC)C(=O)NC(N)=O [1-(2-Ethylcrotonoyl)urea] |  | CC50 at 24 h (AC50 (uM) modified / 1000, Tox21_110001=Tox21_113550, viability, 1 nM T3 present, 24 h): > 50 µM |
| Cc1cccc(N)c1 [3-Methylaniline hydrochloride] | > 90 |  |
| O=[N+]([O-])c1ccc2ncccc2c1 [6-Nitroquinoline] | > 90 |  |
| c1ccc([C@H]2CN3CCSC3=N2)cc1 [Levamisole hydrochloride] | > 50 |  |
| C[C@H](CCC(=O)O)[C@H]1CC[C@H]2[C@@H]3[C@H](O)C[C@@H]4C[C@H](O)CC[C@]4(C)[C@H]3C[C@H](O)[C@]12C [Cholic acid piperazine (1:1)] | > 50 |  |
| CC1CCc2cc(F)cc3c(=O)c(C(=O)O)cn1c23 (stereo not drawn) [Flumequine] | > 50 |  |

| SMILES | CC50 at 24 h (AC50 (uM) modified / 1000) [µM] | further results |
| --- | --- | --- |
| C=CCCCCCCCCO [9-Decen-1-ol] | > 90 |  |
| CCCCCCCCCCOC(=O)c1ccccc1C(=O)OCCCCCCCCCC [Didecyl phthalate] | > 90 |  |
| CNC [Dimethylammonium nitrate] |  | CC50 at 24 h (AC50 (uM) modified / 1000, Tox21_110001=Tox21_200580, viability, 1 nM T3 present, 24 h): > 90 µM |
| O=C(O)C(Cl)Br (stereo not drawn) [Bromochloroacetic acid] |  | CC50 at 24 h (AC50 (uM) modified / 1000, Tox21_110001=Tox21_200894, viability, 1 nM T3 present, 24 h): > 90 µM |
| CCN(CC)CC(=O)Nc1c(C)cc(C)cc1C [Trimecaine monohydrochloride] | > 50 |  |
| Cc1cccc(Br)c1 [3-Bromotoluene] | > 90 |  |
| CCCCCCC(C)Nc1ccc(Nc2ccccc2)cc1 (stereo not drawn) [N-(1-Methylheptyl)-N'-phenyl-1,4-benzenediamine] | 35.9 |  |
| CCCCCCCCCCCC#N [Dodecanenitrile] |  | CC50 at 24 h (AC50 (uM) modified / 1000, Tox21_110001=Tox21_201304, viability, 1 nM T3 present, 24 h): > 90 µM |
| CC(C)(O)c1cnn2c(-c3ccc(F)c(-c4c(F)cccc4C#N)c3)cnc2n1 [PharmaGSID_47330] | > 90 |  |
| CC1(C)[C@@H]2CC[C@@]1(C)C(=O)C2 [D-Camphor] | > 90 |  |
| CC(C)(C)NSc1nc2ccccc2s1 [N-tert-Butyl-2-benzothiazolesulfenamide] | > 90 |  |
| CCCCCCCCCCOS(=O)(=O)O [Sodium decyl sulfate] | > 90 |  |
| CCOC(=O)[C@H](CCc1ccccc1)N[C@H]1CS[C@H](c2cccs2)CN(CC(=O)O)C1=O [Temocapril hydrochloride] | > 50 |  |
| O=[N+]([O-])c1ccccc1C(F)(F)F [1-Nitro-2-(trifluoromethyl)benzene] | > 90 |  |
| C[C@H]1c2cccc(O)c2C(=O)C2=C(O)[C@]3(O)C(=O)C(C(N)=O)=C(O)[C@@H](N(C)C)[C@@H]3[C@@H](O)[C@@H]21 [Doxycycline hydrochloride] | > 50 |  |
| C=CN1CCCC1=O [N-Vinyl-2-pyrrolidone] | > 90 |  |
| NNC(=O)c1cccc(C(=O)NN)c1 [1,3-Benzenedicarboxylic acid, dihydrazide] | > 90 |  |
| CC(=O)Nc1ccc(S(N)(=O)=O)cc1 [4'-Sulfamylacetanilide] | > 90 |  |
| Cc1c(Cl)cccc1Nc1ccccc1C(=O)O [Tolfenamic acid] | > 50 |  |
| CNC[C@H](O)c1ccc(O)c(O)c1 [Epinephrine bitartrate] | > 90 |  |
| O=C1CC2(CCCC2)CC(=O)N1CCNCC1COc2ccccc2O1 (stereo not drawn) [Binospirone mesylate] | 41.9 |  |
| Cc1ccccc1C(=O)Nc1cccc(OC(C)C)c1 [Mepronil] | > 90 |  |
| C[C@@H](O)[C@H]1C(=O)N2C(C(=O)O)=C(S[C@@H]3CN[C@H](C(=O)N(C)C)C3)[C@H](C)[C@H]12 [Meropenem] | > 50 |  |
| CC(Cl)(Cl)C(=O)O [Dalapon-sodium] |  | CC50 at 24 h (AC50 (uM) modified / 1000, Tox21_110001=Tox21_201112, viability, 1 nM T3 present, 24 h): > 90 µM |

| SMILES | CC50 at 24 h (AC50 (uM) modified / 1000) [µM] | further results |
| --- | --- | --- |
| Clc1ccc(Nc2nnc(Cc3ccncc3)c3ccccc23)cc1 [Vatalanib] | > 50 |  |
| O=C1c2ccccc2C(=O)C1c1ccc2ccccc2n1 [D & C Yellow 11] | > 50 |  |
| CCCCCCCCCCCCCCC1CO1 (stereo not drawn) [1,2-Epoxyhexadecane] | > 90 |  |
| CCCC[C@@H](CC)COC(=O)c1ccccc1C(=O)OC[C@@H](CC)CCCC [Di(2-ethylhexyl) phthalate] | > 90 |  |
| Cc1ccc2c(c1[N+](=O)[O-])C(=O)c1ccccc1C2=O [2-Methyl-1-nitroanthraquinone] | 38.7 |  |
| O=C(c1ccccc1)c1ccc(O)cc1 [4-Hydroxybenzophenone] | > 90 |  |
| CC1(C)CCC[C@]2(C)[C@H]3CC(=O)O[C@]3(C)CC[C@@H]12 [(3aR)-(+)-Sclareolide] | 64.9 |  |
| C=CCC1(C(C)CCC)C(=O)N=C(S)NC1=O (stereo not drawn) [Thiamylal sodium] |  | CC50 at 24 h (AC50 (uM) modified / 1000, Tox21_110001=Tox21_111517, viability, 1 nM T3 present, 24 h): > 50 µM |
| CCCOc1ccc(C(=O)OCCN(CC)CC)cc1N [Proparacaine hydrochloride] | > 50 |  |
| CN(C)CCCN1c2ccccc2Sc2ccc(Cl)cc21 [Chlorpromazine hydrochloride] | 10.6 |  |
| C[C@]12O[C@H](C[C@]1(O)CO)n1c3ccccc3c3c4c(c5c6ccccc6n2c5c31)CNC4=O [Lestaurtinib] | 0.226 |  |
| O=C(O)c1cc(=O)c2ccccc2o1 [Chromocarb] | > 50 |  |
| ClCCOCCOCCCl [1,2-Bis(2-chloroethoxy)ethane] | > 90 |  |
| CCC(C)NC(N)=O (stereo not drawn) [sec-Butylurea] | > 90 |  |
| Cc1ccc2ccccc2c1 [2-Methylnaphthalene] |  | CC50 at 24 h (AC50 (uM) modified / 1000, Tox21_110001=Tox21_200839, viability, 1 nM T3 present, 24 h): > 90 µM |
| C[C@]12C=CC(=O)C=C1CC[C@@H]1[C@@H]2CC[C@@]2(C)[C@H]1CC[C@]2(C)O [Methandrostenolone] |  | CC50 at 24 h (AC50 (uM) modified / 1000, Tox21_110001=Tox21_111647, viability, 1 nM T3 present, 24 h): > 50 µM |
| C(/C=C/C=C/Nc1ccccc1)=Nc1ccccc1 [N,N'-Penta-1,3-dien-1-yl-5-ylidenedianiline hydrochloride] | > 90 |  |
| COCCl [Chloromethyl methyl ether] |  | CC50 at 24 h (AC50 (uM) modified / 1000, Tox21_110001=Tox21_201575, viability, 1 nM T3 present, 24 h): > 90 µM; CC50 at 24 h (AC50 (uM) modified / 1000, Tox21_110001=Tox21_302939, viability, 1 nM T3 present, 24 h): > 30 µM |
| N=C(N)c1ccc2cc(OC(=O)c3ccc(N=C(N)N)cc3)ccc2c1 [Nafamostat mesylate] | > 50 |  |
| CN(C)c1cccc(O)c1 [3-Dimethylaminophenol] | > 90 |  |
| CC(CN(C)C)CN1c2ccccc2Sc2ccc(C(F)(F)F)cc21 (stereo not drawn) [Trifluomeprazine 2-butenedioate] | 9.4 |  |
| CCCCCCCCOc1ccc(C(=O)O)cc1 [4-Octyloxybenzoic acid] | > 90 |  |
| COC(=O)/C=C/c1ccccc1 [Methyl (E)-cinnamate] | > 90 |  |
